Where a SMILES comes first, the peptide text is derived from it. Bridges are numbered along the chain shown (N, C = ends). [ ]: non-standard residue; d: D form. The star is where a group is joined. ξ: configuration not given here. Phe(3,4-Cl2) = N[C@@H](Cc1ccc(Cl)c(Cl)c1)C(=O)O; Phe(4-COOH) = N[C@@H](Cc1ccc(C(=O)O)cc1)C(=O)O; Bip = N[C@@H](Cc1ccc(-c2ccccc2)cc1)C(=O)O; Phe(3-Me) = Cc1cccc(C[C@H](N)C(=O)O)c1; Phe(2-F) = N[C@@H](Cc1ccccc1F)C(=O)O; Val(3-OH) = CC(C)(O)[C@H](N)C(=O)O; Ala(cPr) = N[C@@H](CC1CC1)C(=O)O; aIle = CC[C@@H](C)[C@H](N)C(=O)O; 4Pal = N[C@@H](Cc1ccncc1)C(=O)O; Cha = N[C@@H](CC1CCCCC1)C(=O)O; Cit = NC(=O)NCCC[C@H](N)C(=O)O; Thr(3ξ) = CC(O)[C@H](N)C(=O)O; Ahp(2) = CCCCC[C@H](N)C(=O)O; Carboxymethyl = O=C(O)C*; Orn = NCCC[C@H](N)C(=O)O; Dab = NCC[C@H](N)C(=O)O; Dap = NC[C@H](N)C(=O)O; NH(CH2)3NH2 = NCCCN*
molecular target: T1, human PD-1 / PD-L1-Ig binding on Jurkat cell line over-expressing human PD-1 (Jurkat-PD-1) (Homo sapiens, UniProt Q15116); test: Jurkat-PD-1 Cell Binding High-Content Screening Assay (CBA); type: cell-based; details: Jurkat-PD-1 cells, PE-labeled PD-L1-Ig 20 nM final; read-out: Jurkat HPD1_PDL1 IC50
T1 construct: expressed in transfected cells; host or cells: Jurkat
Summary of the method: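 Jurkat cells over-expressing human PD-1, in DMEM/10% FCS, pre-incubated with compound 2 h at 37° C. PE-labeled human PD-L1-Ig (20 nM final) added for 1 h; cells fixed in paraformaldehyde with Hoechst 33342 nuclear stain, washed, and bound fluorescence quantified by high-content imaging.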

T1 sequence (Q15116 25-288): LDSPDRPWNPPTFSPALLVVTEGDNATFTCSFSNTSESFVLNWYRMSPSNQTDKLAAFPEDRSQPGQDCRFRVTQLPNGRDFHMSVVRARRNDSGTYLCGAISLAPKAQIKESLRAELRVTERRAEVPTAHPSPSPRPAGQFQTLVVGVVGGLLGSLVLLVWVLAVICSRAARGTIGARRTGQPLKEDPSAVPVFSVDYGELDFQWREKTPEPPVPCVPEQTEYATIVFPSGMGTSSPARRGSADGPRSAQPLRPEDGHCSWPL

Row | Compound | IC50 [nM]
1 | CCCC[C@H]1NC(=O)[C@H](CCCN)NC(=O)[C@H](C(C)C)NC(=O)[C@H](Cc2ccc(-c3ccccc3)cc2)NC(=O)[C@H](C(C)C)NC(=O)[C@H](Cc2c[nH]c3ccccc23)NC(=O)[C@H](CC(=O)O)NC(=O)[C@H](Cc2ccc(OCC(=O)O)cc2)NC(=O)[C@H](CN)NC(=O)CSC[C@@H](C(=O)N[C@@H](C)C(N)=O)NC(=O)[C@H]([C@@H](C)O)NC(=O)[C@H](C(C)C)NC(=O)[C@H](CC2CCCCC2)NC(=O)[C@H](CCN)NC1=O [Compound 1692] | 10.7
2 | CC(C)C[C@@H]1NC(=O)[C@H](Cc2c[nH]c3ccccc23)NC(=O)[C@H](CC(=O)O)NC(=O)[C@H](Cc2ccc(OCC(=O)O)cc2)NC(=O)[C@H](C(C)O)NC(=O)CSC[C@@H](C(N)=O)NC(=O)[C@H](CO)NC(=O)[C@H](C(C)C)NC(=O)[C@H](CC2CCCCC2)NC(=O)[C@H](Cc2cnc[nH]2)NC(=O)[C@@H](CC(C)C)NC(=O)[C@H](CCC(=O)O)NC(=O)[C@H](C(C)C)NC(=O)[C@H](Cc2ccc(-c3ccccc3)cc2)NC1=O (stereo partly drawn) [Compound 2609] ({CH2CO}-[Thr(3ξ)]Y(Carboxymethyl)DWL[Bip]VE[dL]H[Cha]VSC-NH2; thioether N-14) | 89.1
3 | CC(C)C[C@H]1NC(=O)[C@H](CCCN)NC(=O)[C@H](CCC(=O)O)NC(=O)[C@H](Cc2ccc(-c3ccccc3)cc2)NC(=O)[C@H](C(C)C)NC(=O)[C@H](Cc2ccccc2F)NC(=O)[C@H](CC(=O)O)NC(=O)[C@H](Cc2ccncc2)NC(=O)[C@H](CN)NC(=O)CSC[C@@H](C(=O)N[C@@H](C)C(N)=O)NC(=O)[C@H]([C@@H](C)O)NC(=O)[C@H](C(C)C)NC(=O)[C@H](CC2CCCCC2)NC(=O)[C@H](CCN)NC1=O [Compound 2209] ({CH2CO}-[Dap][4Pal]D[Phe(2-F)]V[Bip]E[Orn][dL][Dab][Cha]VTCA-NH2; thioether N-14) | 29.7
4 | CC(C)C[C@@H]1NC(=O)[C@H](Cc2c[nH]c3ccccc23)NC(=O)[C@H](CC(=O)O)NC(=O)[C@H](Cc2ccc(O)cc2)NC(=O)[C@H](Cc2ccccc2)NC(=O)CSC[C@@H](C(=O)N[C@@H](C)C(N)=O)NC(=O)[C@H](CO)NC(=O)[C@H](C(C)C)NC(=O)[C@H](CC(C)C)NC(=O)[C@H](CC(N)=O)NC(=O)[C@@H](CC(C)C)NC(=O)[C@H](CCCN)NC(=O)[C@H](CCC(=O)O)NC(=O)[C@H](Cc2ccc(-c3ccccc3)cc2)NC1=O [Compound 1235] ({CH2CO}-FYDWL[Bip]E[Orn][dL]NLVSCA-NH2; thioether N-14) | 21
5 | CC(C)C[C@H]1NC(=O)[C@H](CCCN)NC(=O)[C@H](CCCNC(N)=O)NC(=O)[C@H](Cc2ccc(-c3ccccc3)cc2)NC(=O)[C@H](C(C)C)NC(=O)[C@H](Cc2c[nH]c3ccccc23)NC(=O)[C@H](CC(=O)O)NC(=O)[C@H](Cc2ccc(Cl)c(Cl)c2)NC(=O)[C@H](CN)NC(=O)CSC[C@@H](C(=O)N[C@@H](C)C(N)=O)NC(=O)[C@H]([C@@H](C)O)NC(=O)[C@H](C(C)C)NC(=O)[C@H](CC2CCCCC2)NC(=O)[C@H](CCN)NC1=O [Compound 2130] ({CH2CO}-[Dap][Phe(3,4-Cl2)]DWV[Bip][Cit][Orn][dL][Dab][Cha]VTCA-NH2; thioether N-14) | 96.6
6 | CC[C@H](C)[C@@H]1NC(=O)[C@H](Cc2ccc(-c3ccccc3)cc2)NC(=O)[C@H](C(C)C)NC(=O)[C@H](Cc2c[nH]c3ccccc23)NC(=O)[C@H](CC(=O)O)NC(=O)[C@H](Cc2ccc(O)cc2)NC(=O)[C@H](Cc2ccccc2)NC(=O)CSC[C@@H](C(=O)N[C@@H](C)C(N)=O)NC(=O)[C@H]([C@@H](C)O)NC(=O)[C@H](C(C)C)NC(=O)[C@H](CC2CCCCC2)NC(=O)[C@H](CCCNC(=N)N)NC(=O)[C@@H](CC(C)C)NC(=O)[C@H](CCCN)NC1=O [Compound 1148] ({CH2CO}-FYDWV[Bip]I[Orn][dL]R[Cha]VTCA-NH2; thioether N-14) | 51
7 | CCCCC[C@@H]1NC(=O)[C@H](C(C)C)NC(=O)[C@H](Cc2ccccc2)NC(=O)[C@H](CC(=O)O)NC(=O)[C@H](CCCNC(=N)N)NC(=O)[C@H](Cc2ccc(-c3ccccc3)cc2)NC(=O)[C@H](C(C)C)NC(=O)[C@H](Cc2c[nH]c3ccccc23)NC(=O)[C@H](CC(=O)O)NC(=O)[C@H](Cc2ccc(O)cc2)NC(=O)[C@H](Cc2ccccc2)NC(=O)CSC[C@@H](C(=O)NCC(N)=O)NC(=O)[C@H](CO)NC(=O)[C@H](C(C)C)NC1=O [Compound 1003] ({CH2CO}-FYDWV[Bip]RDFV[Ahp(2)]VSCG-NH2; thioether N-14) | 614

Continued, values first:

Row | IC50 [nM] | Compound
8 | 33.5 | CC[C@@H](C)[C@@H]1NC(=O)[C@H](Cc2ccc(-c3ccccc3)cc2)NC(=O)[C@H](CC(C)C)NC(=O)[C@H](Cc2cccc(C)c2)NC(=O)[C@H](CC(=O)O)NC(=O)[C@H](Cc2ccc(OCC(=O)O)cc2)NC(=O)[C@H](Cc2ccc(OCC(=O)O)cc2)NC(=O)CSC[C@@H](C(N)=O)NC(=O)[C@H](CO)NC(=O)[C@H](C(C)C)NC(=O)[C@H](CC(C)C)NC(=O)[C@H](CCN)NC(=O)[C@@H](CC(C)C)NC(=O)[C@H](CCCN)NC1=O [Compound 1653] ({CH2CO}-Y(Carboxymethyl)Y(Carboxymethyl)D[Phe(3-Me)]L[Bip][aIle][Orn][dL][Dab]LVSC-NH2; thioether N-14)
9 | 3 | Cc1cccc(C[C@@H]2NC(=O)[C@H](CC(=O)O)NC(=O)[C@H](Cc3ccc(C(=O)O)cc3)NC(=O)[C@H](Cc3ccc(OCC(=O)O)cc3)NC(=O)CSC[C@@H](C(=O)N[C@@H](C)C(N)=O)NC(=O)[C@H]([C@@H](C)O)NC(=O)[C@H](C(C)C)NC(=O)[C@H](CC(C)C)NC(=O)[C@H](CCN)NC(=O)[C@@H](CC(C)C)NC(=O)[C@H](CCCN)NC(=O)[C@H](C(C)C)NC(=O)[C@H](Cc3ccc(-c4ccccc4)cc3)NC(=O)[C@H](C(C)C)NC2=O)c1 [Compound 1221] ({CH2CO}-Y(Carboxymethyl)[Phe(4-COOH)]D[Phe(3-Me)]V[Bip]V[Orn][dL][Dab]LVTCA-NH2; thioether N-14)
10 | 17 | CCCC[C@H]1NC(=O)[C@H](CCCN)NC(=O)[C@H](CCCNC(N)=O)NC(=O)[C@H](Cc2ccc(-c3ccccc3)cc2)NC(=O)[C@H](C(C)C)NC(=O)[C@H](Cc2c[nH]c3ccccc23)NC(=O)[C@H](CC(=O)O)NC(=O)[C@H](Cc2ccncc2)NC(=O)[C@H](Cc2ccc(OCC(=O)O)cc2)NC(=O)CSC[C@@H](C(=O)N[C@@H](C)C(N)=O)NC(=O)[C@H]([C@@H](C)O)NC(=O)[C@H](C(C)C)NC(=O)[C@H](CC2CCCCC2)NC(=O)[C@H](CCN)NC1=O [Compound 1702]
11 | 18.6 | CCCC[C@H]1NC(=O)[C@H](CCCN)NC(=O)[C@H]([C@@H](C)CC)NC(=O)[C@H](Cc2ccc(-c3ccccc3)cc2)NC(=O)[C@H](C(C)C)NC(=O)[C@H](Cc2c[nH]c3ccccc23)NC(=O)[C@H](CC(=O)O)NC(=O)[C@H](Cc2ccc(C(=O)O)cc2)NC(=O)[C@H](Cc2ccc(OCC(=O)O)cc2)NC(=O)CSC[C@@H](C(=O)N[C@@H](C)C(N)=O)NC(=O)[C@H]([C@@H](C)O)NC(=O)[C@H](C(C)C)NC(=O)[C@H](CC2CCCCC2)NC(=O)[C@H](CCN)NC1=O [Compound 1707]
12 | 22.8 | Cc1cccc(C[C@@H]2NC(=O)[C@H](CC(=O)O)NC(=O)[C@H](Cc3ccc(OCC(=O)O)cc3)NC(=O)[C@H](Cc3ccncc3)NC(=O)CSC[C@@H](C(=O)N[C@@H](CO)C(=O)NCCCN)NC(=O)[C@H](C(C)O)NC(=O)[C@H](C(C)(C)O)NC(=O)[C@H](CC3CCCCC3)NC(=O)[C@H](Cc3cnc[nH]3)NC(=O)[C@@H](CC(C)C)NC(=O)[C@H](CCCN)NC(=O)[C@H](Cc3ccc(OCC(=O)O)cc3)NC(=O)[C@H](Cc3ccc(-c4ccccc4)cc3)NC(=O)[C@H](Cc3ccc(OCC(=O)O)cc3)NC2=O)c1 (stereo partly drawn) [Compound 2647] ({CH2CO}-[4Pal]Y(Carboxymethyl)D[Phe(3-Me)]Y(Carboxymethyl)[Bip]Y(Carboxymethyl)[Orn][dL]H[Cha][Val(3-OH)][Thr(3ξ)]CS-{NH(CH2)3NH2}; thioether N-14)
13 | 13.9 | CC(C)C[C@H]1NC(=O)[C@H](CCCN)NC(=O)[C@H](CCCNC(N)=O)NC(=O)[C@H](Cc2ccc(-c3ccccc3)cc2)NC(=O)[C@H](CC2CC2)NC(=O)[C@H](Cc2c[nH]c3ccccc23)NC(=O)[C@H](CC(=O)O)NC(=O)[C@H](Cc2ccc(OCC(=O)O)cc2)NC(=O)[C@H](CN)NC(=O)CSC[C@@H](C(=O)N[C@@H](C)C(N)=O)NC(=O)[C@H]([C@@H](C)O)NC(=O)[C@H](C(C)C)NC(=O)[C@H](CC2CCCCC2)NC(=O)[C@H](CCN)NC1=O [Compound 1354] ({CH2CO}-[Dap]Y(Carboxymethyl)DW[Ala(cPr)][Bip][Cit][Orn][dL][Dab][Cha]VTCA-NH2; thioether N-14)
14 | 249 | Cc1cccc(C[C@@H]2NC(=O)[C@H](CC(=O)O)NC(=O)[C@H](Cc3ccc(C(=O)O)cc3)NC(=O)[C@H](Cc3ccncc3)NC(=O)CSC[C@@H](C(=O)N[C@@H](CCN)C(N)=O)NC(=O)[C@H](CCC(=O)O)NC(=O)[C@H](C(C)(C)O)NC(=O)[C@H](CC3CCCCC3)NC(=O)[C@H](CCN)NC(=O)[C@@H](CC(C)C)NC(=O)[C@H](CCCN)NC(=O)[C@H](Cc3ccc(OCC(=O)O)cc3)NC(=O)[C@H](Cc3ccc(-c4ccccc4)cc3)NC(=O)[C@H](Cc3ccc(OCC(=O)O)cc3)NC2=O)c1 [Compound 2330] ({CH2CO}-[4Pal][Phe(4-COOH)]D[Phe(3-Me)]Y(Carboxymethyl)[Bip]Y(Carboxymethyl)[Orn][dL][Dab][Cha][Val(3-OH)]EC[Dab]-NH2; thioether N-14)
15 | 14.6 | CC[C@@H]1NC(=O)[C@H](Cc2ccc(-c3ccccc3)cc2)NC(=O)[C@H](C(C)C)NC(=O)[C@H](Cc2cccc(C)c2)NC(=O)[C@H](CC(=O)O)NC(=O)[C@H](Cc2ccc(C(=O)O)cc2)NC(=O)[C@H](Cc2ccncc2)NC(=O)CSC[C@@H](C(=O)N[C@@H](C)C(N)=O)NC(=O)[C@H]([C@@H](C)O)NC(=O)[C@H](C(C)C)NC(=O)[C@H](CC2CCCCC2)NC(=O)[C@H](CCN)NC(=O)[C@@H](CC(C)C)NC(=O)[C@H](CCCN)NC1=O [Compound 1619]
